Reference: ChEMBL document CHEMBL3045554, “Synthesis and antimicrobial screening of N-(1-methyl-1H-pyrazole-4-carbonyl)-thiourea derivatives” (2012)
Values after ≈ are worked out from the molar mass of the structure shown. Active and inactive are the calls of the source. The rule behind the calls is not given here.

Assays:
[1] = test system: Escherichia coli; experiment: Antimicrobial activity against Escherichia coli 637/2007 by microdilution method; assay type: functional
[2] = test system: Bacillus subtilis; experiment: Antimicrobial activity against Bacillus subtilis 10.10.2006 by microdilution method; assay type: functional
[3] = test system: Klebsiella pneumoniae; experiment: Antimicrobial activity against Klebsiella pneumoniae 126/2007 by microdilution method; assay type: functional
[4] = test system: Staphylococcus aureus; experiment: Antimicrobial activity against Staphylococcus aureus by microdilution method; assay type: functional
[5] = test system: Pseudomonas aeruginosa; experiment: Antimicrobial activity against Pseudomonas aeruginosa 5541 by microdilution method; assay type: functional
[6] = test system: Enterococcus faecalis; experiment: Antimicrobial activity against Enterococcus faecalis 13773 by microdilution method; assay type: functional
[7] = test system: Acinetobacter baumannii; experiment: Antimicrobial activity against Acinetobacter baumannii 15896 by microdilution method; assay type: functional
[8] = test system: Acinetobacter baumannii; experiment: Effect on amylase production in Acinetobacter baumannii 15896 after 24 hr by starch hydrolysis assay; assay type: functional, organism-based
[9] = test system: Staphylococcus aureus; experiment: Effect on lipase production in Staphylococcus aureus after 7 days; assay type: functional, organism-based
[10] = test system: Acinetobacter baumannii; experiment: Effect on lipase production in Acinetobacter baumannii 15896 after 7 days; assay type: functional, organism-based
[11] = test system: Staphylococcus aureus; experiment: Inhibition of lecithinase production in Staphylococcus aureus after 7 days; assay type: functional, organism-based
[12] = test system: Pseudomonas aeruginosa; experiment: Inhibition of caseinase production in Pseudomonas aeruginosa 5541 after 24 hr by casein hydrolysis assay; assay type: functional, organism-based
[13] = test system: Bacillus subtilis; experiment: Effect on gelatinase production in Bacillus subtilis 10.10.2006 after 24 hr by gelatin hydrolysis test; assay type: functional, organism-based
[14] = test system: Acinetobacter baumannii; experiment: Inhibition of lecithinase production in Acinetobacter baumannii 15896 after 7 days; assay type: functional, organism-based
[15] = test system: Klebsiella pneumoniae; experiment: Inhibition of lecithinase production in Klebsiella pneumoniae 126/2007 after 7 days; assay type: functional, organism-based
[16] = test system: Escherichia coli; experiment: Inhibition of caseinase production in Escherichia coli 637/2007 after 24 hr by casein hydrolysis assay; assay type: functional, organism-based
[17] = test system: Bacillus subtilis; experiment: Effect on esculethol production in Bacillus subtilis 10.10.2006 after 24 hr by esculin hydrolysis test; assay type: functional, organism-based
[18] = test system: Escherichia coli; experiment: Effect on DNase production in Escherichia coli 637/2007 after 24 hr; assay type: functional, organism-based
[19] = test system: Bacillus subtilis; experiment: Effect on DNase production in Bacillus subtilis 10.10.2006 after 24 hr; assay type: functional, organism-based
[20] = test system: Enterococcus faecalis; experiment: Inhibition of caseinase production in Enterococcus faecalis 13773 after 24 hr by casein hydrolysis assay; assay type: functional, organism-based
[21] = test system: Escherichia coli; experiment: Effect on gelatinase production in Escherichia coli 637/2007 after 24 hr by gelatin hydrolysis test; assay type: functional, organism-based
[22] = test system: Bacillus subtilis; experiment: Inhibition of lecithinase production in Bacillus subtilis 10.10.2006 after 7 days; assay type: functional, organism-based
[23] = test system: Acinetobacter baumannii; experiment: Effect on esculethol production in Acinetobacter baumannii 15896 after 24 hr by esculin hydrolysis test; assay type: functional, organism-based
[24] = test system: Acinetobacter baumannii; experiment: Effect on DNase production in Acinetobacter baumannii 15896 after 24 hr; assay type: functional, organism-based
[25] = test system: Escherichia coli; experiment: Inhibition of lecithinase production in Escherichia coli 637/2007 after 7 days; assay type: functional, organism-based
[26] = test system: Pseudomonas aeruginosa; experiment: Effect on amylase production in Pseudomonas aeruginosa 5541 after 24 hr by starch hydrolysis assay; assay type: functional, organism-based
[27] = test system: Escherichia coli; experiment: Effect on amylase production in Escherichia coli 637/2007 after 24 hr by starch hydrolysis assay; assay type: functional, organism-based
[28] = test system: Escherichia coli; experiment: Effect on esculethol production in Escherichia coli 637/2007 after 24 hr by esculin hydrolysis test; assay type: functional, organism-based
[29] = test system: Enterococcus faecalis; experiment: Inhibition of lecithinase production in Enterococcus faecalis 13773 after 7 days; assay type: functional, organism-based
[30] = test system: Enterococcus faecalis; experiment: Effect on DNase production in Enterococcus faecalis 13773 after 24 hr; assay type: functional, organism-based
[31] = test system: Acinetobacter baumannii; experiment: Effect on gelatinase production in Acinetobacter baumannii 15896 after 24 hr by gelatin hydrolysis test; assay type: functional, organism-based
[32] = test system: Staphylococcus aureus; experiment: Inhibition of caseinase production in Staphylococcus aureus after 24 hr by casein hydrolysis assay; assay type: functional, organism-based
[33] = test system: Pseudomonas aeruginosa; experiment: Effect on esculethol production in Pseudomonas aeruginosa 5541 after 24 hr by esculin hydrolysis test; assay type: functional, organism-based
[34] = test system: Klebsiella pneumoniae; experiment: Effect on esculethol production in Klebsiella pneumoniae 126/2007 after 24 hr by esculin hydrolysis test; assay type: functional, organism-based
[35] = test system: Pseudomonas aeruginosa; experiment: Effect on lipase production in Pseudomonas aeruginosa 5541 after 7 days; assay type: functional, organism-based
[36] = test system: Escherichia coli; experiment: Effect on lipase production in Escherichia coli 637/2007 after 7 days; assay type: functional, organism-based
[37] = test system: Klebsiella pneumoniae; experiment: Effect on DNase production in Klebsiella pneumoniae 126/2007 after 24 hr; assay type: functional, organism-based
[38] = test system: Pseudomonas aeruginosa; experiment: Inhibition of lecithinase production in Pseudomonas aeruginosa 5541 after 7 days; assay type: functional, organism-based
[39] = test system: Klebsiella pneumoniae; experiment: Inhibition of caseinase production in Klebsiella pneumoniae 126/2007 after 24 hr by casein hydrolysis assay; assay type: functional, organism-based
[40] = test system: Staphylococcus aureus; experiment: Effect on gelatinase production in Staphylococcus aureus after 24 hr by gelatin hydrolysis test; assay type: functional, organism-based
[41] = test system: Acinetobacter baumannii; experiment: Inhibition of caseinase production in Acinetobacter baumannii 15896 after 24 hr by casein hydrolysis assay; assay type: functional, organism-based
[42] = test system: Pseudomonas aeruginosa; experiment: Effect on gelatinase production in Pseudomonas aeruginosa 5541 after 24 hr by gelatin hydrolysis test; assay type: functional, organism-based
[43] = test system: Pseudomonas aeruginosa; experiment: Effect on DNase production in Pseudomonas aeruginosa 5541 after 24 hr; assay type: functional, organism-based
[44] = test system: Enterococcus faecalis; experiment: Effect on amylase production in Enterococcus faecalis 13773 after 24 hr by starch hydrolysis assay; assay type: functional, organism-based
[45] = test system: Staphylococcus aureus; experiment: Effect on esculethol production in Staphylococcus aureus after 24 hr by esculin hydrolysis test; assay type: functional, organism-based
[46] = test system: Klebsiella pneumoniae; experiment: Effect on gelatinase production in Klebsiella pneumoniae 126/2007 after 24 hr by gelatin hydrolysis test; assay type: functional, organism-based
[47] = test system: Staphylococcus aureus; experiment: Effect on DNase production in Staphylococcus aureus after 24 hr; assay type: functional, organism-based
[48] = test system: Klebsiella pneumoniae; experiment: Effect on lipase production in Klebsiella pneumoniae 126/2007 after 7 days; assay type: functional, organism-based
[49] = test system: Bacillus subtilis; experiment: Effect on lipase production in Bacillus subtilis 10.10.2006 after 7 days; assay type: functional, organism-based
[50] = test system: Enterococcus faecalis; experiment: Effect on lipase production in Enterococcus faecalis 13773 after 7 days; assay type: functional, organism-based
[51] = test system: Staphylococcus aureus; experiment: Effect on amylase production in Staphylococcus aureus after 24 hr by starch hydrolysis assay; assay type: functional, organism-based
[52] = test system: Enterococcus faecalis; experiment: Effect on gelatinase production in Enterococcus faecalis 13773 after 24 hr by gelatin hydrolysis test; assay type: functional, organism-based
[53] = test system: Bacillus subtilis; experiment: Effect on amylase production in Bacillus subtilis 10.10.2006 after 24 hr by starch hydrolysis assay; assay type: functional, organism-based
[54] = test system: Klebsiella pneumoniae; experiment: Effect on amylase production in Klebsiella pneumoniae 126/2007 after 24 hr by starch hydrolysis assay; assay type: functional, organism-based
[55] = test system: Bacillus subtilis; experiment: Inhibition of caseinase production in Bacillus subtilis 10.10.2006 after 24 hr by casein hydrolysis assay; assay type: functional, organism-based
[56] = test system: Enterococcus faecalis; experiment: Effect on esculethol production in Enterococcus faecalis 13773 after 24 hr by esculin hydrolysis test; assay type: functional, organism-based

## CC(C)c1ccc(NC(=S)NC(=O)c2cnn(C)c2)cc1
[1]
  MIC: > 1000 µg/mL
[2]
  MIC: > 1000 µg/mL
[3]
  MIC: > 1000 µg/mL
[4]
  MIC: > 1000 µg/mL
[5]
  MIC: > 1000 µg/mL
[6]
  MIC: > 1000 µg/mL
[7]
  MIC: > 1000 µg/mL

## Cn1cc(C(=O)NC(=S)Nc2ccccc2C(C)(C)C)cn1
[1]
  MIC: > 1000 µg/mL
[2]
  MIC: > 1000 µg/mL
[3]
  MIC: > 1000 µg/mL
[4]
  MIC: > 1000 µg/mL
[5]
  MIC: > 1000 µg/mL
[6]
  MIC: > 1000 µg/mL
[7]
  MIC: 1000 µg/mL (≈ 3.16 mM)

## CCC(C)c1ccc(NC(=S)NC(=O)c2cnn(C)c2)cc1 (stereo unspecified)
[1]
  MIC: > 1000 µg/mL
[2]
  MIC: > 1000 µg/mL
[3]
  MIC: > 1000 µg/mL
[4]
  MIC: > 1000 µg/mL
[5]
  MIC: > 1000 µg/mL
[6]
  MIC: > 1000 µg/mL
[7]
  MIC: > 1000 µg/mL

## CC(C)c1ccccc1NC(=S)NC(=O)c1cnn(C)c1
[1]
  MIC: > 1000 µg/mL
[2]
  MIC: > 1000 µg/mL
[3]
  MIC: 1000 µg/mL (≈ 3.31 mM)
[4]
  MIC: > 1000 µg/mL
[5]
  MIC: > 1000 µg/mL
[6]
  MIC: > 1000 µg/mL
[7]
  MIC: > 1000 µg/mL

## CCCc1ccccc1NC(=S)NC(=O)c1cnn(C)c1
[8]
  Activity: inactive
[9]
  Activity: inactive
[10]
  Activity: inactive
[11]
  inhibition: inactive
[12]
  inhibition: inactive
[13]
  Activity: inactive
[14]
  inhibition: inactive
[15]
  inhibition: inactive
[16]
  inhibition: Active
[17]
  Activity: inactive
[18]
  Activity: inactive
[19]
  Activity: inactive
[20]
  inhibition: inactive
[21]
  Activity: inactive
[22]
  inhibition: inactive
[23]
  Activity: inactive
[1]
  MIC: 1000 µg/mL (≈ 3.31 mM)
[24]
  Activity: inactive
[25]
  inhibition: inactive
[26]
  Activity: inactive
[27]
  Activity: inactive
[28]
  Activity: inactive
[29]
  inhibition: inactive
[2]
  MIC: 500 µg/mL (≈ 1.65 mM)
[30]
  Activity: inactive
[31]
  Activity: inactive
[32]
  inhibition: inactive
[33]
  Activity: inactive
[3]
  MIC: 500 µg/mL (≈ 1.65 mM)
[34]
  Activity: inactive
[35]
  Activity: inactive
[36]
  Activity: inactive
[4]
  MIC: 500 µg/mL (≈ 1.65 mM)
[37]
  Activity: inactive
[5]
  MIC: 1000 µg/mL (≈ 3.31 mM)
[38]
  inhibition: inactive
[39]
  inhibition: inactive
[40]
  Activity: inactive
[41]
  inhibition: inactive
[42]
  Activity: inactive
[43]
  Activity: inactive
[44]
  Activity: inactive
[45]
  Activity: inactive
[46]
  Activity: inactive
[6]
  MIC: 250 µg/mL (≈ 0.827 mM)
[47]
  Activity: inactive
[48]
  Activity: inactive
[49]
  Activity: inactive
[50]
  Activity: inactive
[51]
  Activity: inactive
[7]
  MIC: 250 µg/mL (≈ 0.827 mM)
[52]
  Activity: inactive
[53]
  Activity: inactive
[54]
  Activity: inactive
[55]
  inhibition: inactive
[56]
  Activity: inactive

## Cc1ccc(NC(=S)NC(=O)c2cnn(C)c2)cc1
[1]
  MIC: > 1000 µg/mL
[2]
  MIC: > 1000 µg/mL
[3]
  MIC: > 1000 µg/mL
[4]
  MIC: > 1000 µg/mL
[5]
  MIC: > 1000 µg/mL
[6]
  MIC: > 1000 µg/mL
[7]
  MIC: > 1000 µg/mL
